Test results published in ChEMBL document CHEMBL1152114, “Synthesis of conformationally constrained potential inhibitors of mammalian metalloproteinases” (Bioorg Med Chem Lett, 1997).

How the values were obtained:
[1] = target: 72 kDa type IV collagenase (Homo sapiens, UniProt P08253); experiment: Inhibition of Gelatinase A, matrix metalloprotease-2
[2] = target: Matrix metalloproteinase-9 (Homo sapiens, UniProt P14780); experiment: Inhibition of Gelatinase B, matrix metalloprotease-9
[3] = tested on: L1210; experiment: Compound was evaluated for the inhibitory activity against L1210 cell lines; format: functional, cell-based; conditions: Mus musculus

Chain of Matrix metalloproteinase-9 (P14780 whole entry): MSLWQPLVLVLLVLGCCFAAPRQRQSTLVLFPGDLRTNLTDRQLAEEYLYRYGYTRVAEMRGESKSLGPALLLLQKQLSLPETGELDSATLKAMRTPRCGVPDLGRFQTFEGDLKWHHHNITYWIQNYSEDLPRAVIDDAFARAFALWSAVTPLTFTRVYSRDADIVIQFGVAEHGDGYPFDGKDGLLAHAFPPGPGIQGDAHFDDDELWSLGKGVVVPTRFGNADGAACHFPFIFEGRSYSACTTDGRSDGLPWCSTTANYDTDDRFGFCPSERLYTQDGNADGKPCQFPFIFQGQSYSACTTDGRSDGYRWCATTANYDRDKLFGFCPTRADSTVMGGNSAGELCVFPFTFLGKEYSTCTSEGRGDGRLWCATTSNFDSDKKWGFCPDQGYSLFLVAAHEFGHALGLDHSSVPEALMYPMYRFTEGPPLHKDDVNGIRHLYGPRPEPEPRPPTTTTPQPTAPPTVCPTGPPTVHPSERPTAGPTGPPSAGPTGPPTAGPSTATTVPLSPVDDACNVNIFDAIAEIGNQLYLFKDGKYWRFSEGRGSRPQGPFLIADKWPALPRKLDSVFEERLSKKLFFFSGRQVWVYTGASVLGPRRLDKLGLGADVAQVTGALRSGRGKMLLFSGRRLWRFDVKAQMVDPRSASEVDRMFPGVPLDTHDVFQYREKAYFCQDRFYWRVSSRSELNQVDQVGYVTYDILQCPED
Chain of 72 kDa type IV collagenase (P08253 whole entry): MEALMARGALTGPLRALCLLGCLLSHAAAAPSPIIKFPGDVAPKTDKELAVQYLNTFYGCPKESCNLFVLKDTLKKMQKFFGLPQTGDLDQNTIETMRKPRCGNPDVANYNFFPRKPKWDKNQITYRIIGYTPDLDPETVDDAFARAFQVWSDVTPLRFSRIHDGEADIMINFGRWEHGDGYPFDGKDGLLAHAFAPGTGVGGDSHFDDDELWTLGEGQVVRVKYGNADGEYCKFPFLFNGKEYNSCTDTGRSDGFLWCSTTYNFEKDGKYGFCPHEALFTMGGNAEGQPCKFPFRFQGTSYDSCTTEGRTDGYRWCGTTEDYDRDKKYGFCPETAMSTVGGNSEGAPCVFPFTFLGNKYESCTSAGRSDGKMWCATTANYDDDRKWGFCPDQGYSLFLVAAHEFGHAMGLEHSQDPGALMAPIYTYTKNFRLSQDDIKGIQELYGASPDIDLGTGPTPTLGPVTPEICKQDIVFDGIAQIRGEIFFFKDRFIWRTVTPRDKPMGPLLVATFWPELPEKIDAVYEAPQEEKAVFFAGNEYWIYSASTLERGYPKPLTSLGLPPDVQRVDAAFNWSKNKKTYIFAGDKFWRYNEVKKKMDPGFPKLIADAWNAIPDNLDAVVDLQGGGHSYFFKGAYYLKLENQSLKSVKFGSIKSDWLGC

Structure (SMILES): CNC(=O)[C@H](Cc1ccccc1)NC(=O)[C@H]1[C@@H](COCC(=O)NO)[C@@H]1CSc1ccccc1
- IC50 [1]: 32 µM
- IC50 [2]: 36 µM
- IC50 [3]: > 1000 µM
